Laboratory results taken from patent US20020137929A1, “1 - (3-heterocyclylphenyl) isothiourea, -isourea, -guanidine and -amidine herbicidal agents” (Intellectual Property Department, BASF Aktiengesellschaft, priority 1998, published 2002).

Tests used:
AMBEL (Ragweed, Common) = assay: Postemergence herbicidal evaluation; assay type: in vivo, Ambrosia artemisifolia; details: postemergence
In short: (§1)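 Two-week seedlings sprayed postemergence at 40 psi; formulation: 1:1 acetone/water, 0.5% TWEEN 20; application ≈0.0156–0.500 kg/ha. Greenhouse grow-out, then 0–9 visual scoring at 4–5 weeks.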

CASOB (Sicklepod) [1] = assay: Postemergence herbicidal evaluation; assay type: in vivo, Cassia obtusifolia; details: postemergence
In short: as §1

GALAP (Galium) = assay: Postemergence herbicidal evaluation; assay type: in vivo, Galium aparine; details: postemergence
In short: as §1

[2] = tested on: IPOHE (Morningglory, Ivyleaf); assay: Postemergence herbicidal evaluation; assay type: in vivo, Ipomoea hederacea; details: postemergence
In short: as §1

ABUTH (Velvetleaf) = assay: Preemergence herbicidal evaluation; assay type: in vivo, Abutilon theophrasti; details: rated 4-5 weeks after treatment
In short: (§2)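 Visual 0-9 rating vs control (stand, vigor, malformation, size, chlorosis, overall appearance), scored 4-5 wk after spraying. Seeded soil cups were treated preemergence with compound in aqueous acetone, ~0.0156-0.500 kg/ha equivalent.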

CASOB (Sicklepod) [3] = assay: Preemergence herbicidal evaluation; assay type: in vivo, Cassia obtusifolia; details: rated 4-5 weeks after treatment
In short: as §2

[4] = tested on: IPOHE (Morningglory, Ivyleaf); assay: Preemergence herbicidal evaluation; assay type: in vivo, Ipomoea hederacea; details: rated 4-5 weeks after treatment
In short: as §2

ECHCG (Barnyardgrass) = assay: Preemergence herbicidal evaluation; assay type: in vivo, Echinochloa crus-galli; details: rated 4-5 weeks after treatment
In short: as §2

[5] = tested on: GLXMAW (Soybean, Williams); assay: Preemergence herbicidal evaluation; assay type: in vivo, Glycine max, (L.) Merr. cv Williams; details: rated 4-5 weeks after treatment
In short: as §2

[6] = tested on: TRZAWR (Wheat, Winter, cv Riband); assay: Preemergence herbicidal evaluation; assay type: in vivo, Triticum aestivum; details: rated 4-5 weeks after treatment
In short: as §2

ZEAMX (Corn, Field) = assay: Preemergence herbicidal evaluation; assay type: in vivo, Zea mays; details: rated 4-5 weeks after treatment
In short: as §2

MOOVA (Monochoria) = assay: Preemergence weed control under flooded paddy conditions; assay type: in vivo, Monochoria vaginalis; details: rated 3-4 weeks after treatment
In short: (§3)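 Visual injury scored 0-9 against control three to four weeks post-treatment, greenhouse-grown. Application: acetone/water (50/50) solutions dosed directly into flood water (1.5-3 cm over silt loam, planted top 0.5 cm), roughly 0.0313 to 0.500 kg/ha active ingredient.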

[7] = tested on: SAGPY (Arrowhead (Pygmaea)); assay: as above; assay type: in vivo, Sagittaria pygmaea; details: rated 3-4 weeks after treatment
In short: as §3

[8] = rate 0.1250 kg/ha, rating scale 0-9
[9] = rate 0.2500 kg/ha, rating scale 0-9

CCOC(=O)CN1C(=O)C(Br)SC1=Nc1cc(-n2c(=O)cc(C(F)(F)F)n(C)c2=O)c(F)cc1Cl (stereo not drawn) [Compound 153, Ethyl 5-bromo-2-[{2-chloro-5-[3,6-dihydro-3-methyl-2,6-dioxo-4-(trifluoromethyl)-1(2H)-pyrimidinyl]-4-fluorophenyl}imino}-4-oxo-3-thiazolidineacetate]
Herbicidal rating AMBEL (AMBEL (Ragweed, Common); rate 0.0156 kg/ha): 0.0
Herbicidal rating AMBEL (AMBEL (Ragweed, Common); rate 0.0313 kg/ha): 1.0
Herbicidal rating AMBEL (AMBEL (Ragweed, Common); rate 0.0625 kg/ha): 1.0
Herbicidal rating CASOB (CASOB (Sicklepod) [1]; rate 0.0156 kg/ha): 0.0
Herbicidal rating CASOB (CASOB (Sicklepod) [1]; rate 0.0313 kg/ha): 0.0
Herbicidal rating CASOB (CASOB (Sicklepod) [1]; rate 0.0625 kg/ha): 1.0
Herbicidal rating GALAP (GALAP (Galium); rate 0.0156 kg/ha): 0.0
Herbicidal rating GALAP (GALAP (Galium); rate 0.0313 kg/ha): 0.0
Herbicidal rating GALAP (GALAP (Galium); rate 0.0625 kg/ha): 0.0
Herbicidal rating IPOHE ([2]; rate 0.0156 kg/ha): 4.0
Herbicidal rating IPOHE ([2]; rate 0.0313 kg/ha): 6.0
Herbicidal rating IPOHE ([2]; rate 0.0625 kg/ha): 9.0
Preemergence herbicidal rating ABUTH (ABUTH (Velvetleaf); [8]): 0.0
Preemergence herbicidal rating ABUTH (ABUTH (Velvetleaf); [9]): 2.0
Preemergence herbicidal rating CASOB (CASOB (Sicklepod) [3]; [8]): 0.0
Preemergence herbicidal rating CASOB (CASOB (Sicklepod) [3]; [9]): 0.0
Preemergence herbicidal rating IPOHE [4, 8]: 1.0
Preemergence herbicidal rating IPOHE [4, 9]: 0.0
Preemergence herbicidal rating ECHCG (ECHCG (Barnyardgrass); [8]): 0.0
Preemergence herbicidal rating ECHCG (ECHCG (Barnyardgrass); [9]): 0.0
Preemergence herbicidal rating GLXMAW [5, 8]: 0.0
Preemergence herbicidal rating GLXMAW [5, 9]: 1.0
Preemergence herbicidal rating TRZAWR [6, 8]: 0.0
Preemergence herbicidal rating TRZAWR [6, 9]: 0.0
Preemergence herbicidal rating ZEAMX (ZEAMX (Corn, Field); [8]): 0.0
Preemergence herbicidal rating ZEAMX (ZEAMX (Corn, Field); [9]): 0.0
herbicidal effect rating, MOOVA (MOOVA (Monochoria); 0.0625 kg/ha): 3.0
herbicidal effect rating, MOOVA (MOOVA (Monochoria); 0.1250 kg/ha): 4.0
herbicidal effect rating, MOOVA (MOOVA (Monochoria); 0.2500 kg/ha): 5.0
herbicidal effect rating, SAGPY ([7]; 0.0625 kg/ha): 0.0
herbicidal effect rating, SAGPY ([7]; 0.1250 kg/ha): 0.0
herbicidal effect rating, SAGPY ([7]; 0.2500 kg/ha): 0.0

CCN1C(=O)CSC1=Nc1cc(-n2c(=O)cc(C(F)(F)F)n(C)c2=O)c(F)cc1Cl [Compound 159, 3-{4-Chloro-5-[(3-ethyl-4-oxo-2-thiazolidinyl-idene)amino]-2-fluorophenyl}-1-methyl-6-(trifluoromethyl)-2,4(1H,3H)-pyrimidinedione]
Herbicidal rating AMBEL (AMBEL (Ragweed, Common); rate 0.0156 kg/ha): 4.0
Herbicidal rating AMBEL (AMBEL (Ragweed, Common); rate 0.0313 kg/ha): 7.0
Herbicidal rating AMBEL (AMBEL (Ragweed, Common); rate 0.0625 kg/ha): 7.0
Herbicidal rating CASOB (CASOB (Sicklepod) [1]; rate 0.0156 kg/ha): 0.0
Herbicidal rating CASOB (CASOB (Sicklepod) [1]; rate 0.0313 kg/ha): 1.0
Herbicidal rating CASOB (CASOB (Sicklepod) [1]; rate 0.0625 kg/ha): 7.0
Herbicidal rating GALAP (GALAP (Galium); rate 0.0156 kg/ha): 0.0
Herbicidal rating GALAP (GALAP (Galium); rate 0.0313 kg/ha): 1.0
Herbicidal rating GALAP (GALAP (Galium); rate 0.0625 kg/ha): 4.0
Herbicidal rating IPOHE ([2]; rate 0.0156 kg/ha): 9.0
Herbicidal rating IPOHE ([2]; rate 0.0313 kg/ha): 9.0
Herbicidal rating IPOHE ([2]; rate 0.0625 kg/ha): 9.0
Preemergence herbicidal rating ABUTH (ABUTH (Velvetleaf); 0.0156 kg/ha): 2.0
Preemergence herbicidal rating ABUTH (ABUTH (Velvetleaf); 0.0313 kg/ha): 9.0
Preemergence herbicidal rating ABUTH (ABUTH (Velvetleaf); 0.0625 kg/ha): 9.0
Preemergence herbicidal rating ABUTH (ABUTH (Velvetleaf); 0.1250 kg/ha): 9.0
Preemergence herbicidal rating ABUTH (ABUTH (Velvetleaf); 0.2500 kg/ha): 9.0
Preemergence herbicidal rating CASOB (CASOB (Sicklepod) [3]; 0.0156 kg/ha): 0.0
Preemergence herbicidal rating CASOB (CASOB (Sicklepod) [3]; 0.0313 kg/ha): 1.0
Preemergence herbicidal rating CASOB (CASOB (Sicklepod) [3]; 0.0625 kg/ha): 3.0
Preemergence herbicidal rating CASOB (CASOB (Sicklepod) [3]; 0.1250 kg/ha): 3.0
Preemergence herbicidal rating CASOB (CASOB (Sicklepod) [3]; 0.2500 kg/ha): 7.0
Preemergence herbicidal rating IPOHE ([4]; 0.0156 kg/ha): 0.0
Preemergence herbicidal rating IPOHE ([4]; 0.0313 kg/ha): 2.0
Preemergence herbicidal rating IPOHE ([4]; 0.0625 kg/ha): 9.0
Preemergence herbicidal rating IPOHE ([4]; 0.1250 kg/ha): 7.0
Preemergence herbicidal rating IPOHE ([4]; 0.2500 kg/ha): 9.0
Preemergence herbicidal rating ECHCG (ECHCG (Barnyardgrass); 0.0156 kg/ha): 0.0
Preemergence herbicidal rating ECHCG (ECHCG (Barnyardgrass); 0.0313 kg/ha): 1.0
Preemergence herbicidal rating ECHCG (ECHCG (Barnyardgrass); 0.0625 kg/ha): 0.0
Preemergence herbicidal rating ECHCG (ECHCG (Barnyardgrass); 0.1250 kg/ha): 2.0
Preemergence herbicidal rating ECHCG (ECHCG (Barnyardgrass); 0.2500 kg/ha): 3.0
Preemergence herbicidal rating GLXMAW ([5]; 0.0156 kg/ha): 1.0
Preemergence herbicidal rating GLXMAW ([5]; 0.0313 kg/ha): 0.0
Preemergence herbicidal rating GLXMAW ([5]; 0.0625 kg/ha): 1.0
Preemergence herbicidal rating GLXMAW ([5]; 0.1250 kg/ha): 2.0
Preemergence herbicidal rating GLXMAW ([5]; 0.2500 kg/ha): 3.0
Preemergence herbicidal rating TRZAWR ([6]; 0.0156 kg/ha): 0.0
Preemergence herbicidal rating TRZAWR ([6]; 0.0313 kg/ha): 0.0
Preemergence herbicidal rating TRZAWR ([6]; 0.0625 kg/ha): 0.0
Preemergence herbicidal rating TRZAWR ([6]; 0.1250 kg/ha): 1.0
Preemergence herbicidal rating TRZAWR ([6]; 0.2500 kg/ha): 3.0
Preemergence herbicidal rating ZEAMX (ZEAMX (Corn, Field); 0.0156 kg/ha): 0.0
Preemergence herbicidal rating ZEAMX (ZEAMX (Corn, Field); 0.0313 kg/ha): 0.0
Preemergence herbicidal rating ZEAMX (ZEAMX (Corn, Field); 0.0625 kg/ha): 1.0
Preemergence herbicidal rating ZEAMX (ZEAMX (Corn, Field); 0.1250 kg/ha): 2.0
Preemergence herbicidal rating ZEAMX (ZEAMX (Corn, Field); 0.2500 kg/ha): 7.0
herbicidal effect rating, MOOVA (MOOVA (Monochoria); 0.0313 kg/ha): 0.0
herbicidal effect rating, MOOVA (MOOVA (Monochoria); 0.0625 kg/ha): 3.0
herbicidal effect rating, MOOVA (MOOVA (Monochoria); 0.1250 kg/ha): 6.0
herbicidal effect rating, MOOVA (MOOVA (Monochoria); 0.2500 kg/ha): 9.0
herbicidal effect rating, SAGPY ([7]; 0.0313 kg/ha): 0.0
herbicidal effect rating, SAGPY ([7]; 0.0625 kg/ha): 3.0
herbicidal effect rating, SAGPY ([7]; 0.1250 kg/ha): 3.0
herbicidal effect rating, SAGPY ([7]; 0.2500 kg/ha): 6.0
